Measurements from patent US8927771B2, “Pharmaceutically acceptable cocrystals of N-[2-(7-methoxyl-1-naphtyl)ethyl]acetamide and methods of their preparation” (Zentiva k.s., priority 2011, dated 2015).

How the values were obtained:
[1] = BCS classification system; cited from earlier work
[2] = suspensions in organic solvents (alcohols, ketones, esters, alkanes, aromatic hydrocarbons), 30° C., one week, Raman spectroscopy
Protocol: Samples of the agomelatine citric acid cocrystal were maturated as suspensions in a library of organic solvents including alcohols, ketones, esters, alkanes and aromatic hydrocarbons at a temperature of 30° C. for one week.

[3] = 90° C. in a glass capillary for 7 hours, X-ray powder diffraction
Protocol: A sample of the agomelatine citric acid cocrystal was heated to 90° C. in a glass capillary for 7 hours.

[4] = DVS, range of 20-80% RH
Text: A sample of the agomelatine citric acid cocrystal was subjected to DVS analysis ([…] Vapor Sorption). The sample was placed on a microbalance in a controlled humidity chamber and subjected to two cycles of increasing humidity (red and green lines) and two cycles of decreasing humidity (blue and purple lines) as shown in FIG. 4.

[5] = slurried in water, Raman spectra
Protocol: A sample of the agomelatine citric acid cocrystal was slurried in water and the solid analysed by Raman spectroscopy at 20 minute intervals.

SMILES | BCS solubility class [1] | stability of the crystalline phase in suspension [2] | crystalline phase after heating [3] | hygroscopicity [4] | change in mass ([4]; two cycles of increasing and two of decreasing humidity) | state of the solid in water slurry after 20 minutes ([5]; after 20 minutes) | state of the solid in water slurry after 40 minutes ([5]; after 40 minutes)
COc1ccc2cccc(CCNC(C)=O)c2c1 [N-[2-(7-Methoxy-1-naphthyl)ethyl]acetamide] | high solubility drug |  |  |  |  |  | 
COc1ccc2cccc(CCNC(C)=O)c2c1.O=C(O)CC(O)(CC(=O)O)C(=O)O [agomelatine citric acid cocrystal, N-[2-(7-methoxy-1-naphthyl)ethyl]acetamide Citric Acid Cocrystal] |  | generally stable | pure crystalline phase consistent with the agomelatine citric acid cocrystal | not particularly hygroscopic | less than 0.2% | near to complete dissolution of the citric acid | no further changes in the spectrum were observed
